Measured values from US12708601B2, “Mangosteen pericarp extract and process for its preparation thereof” (JUNHONG BIOTECHNOLOGY CO., LTD., priority 2020, dated 2026).

System: B16F10 melanoma cells
Test: Cell viability assay (MTT) in B16F10 cells treated with α-MSH with or without aqua choice
Assay type: cell-based, mouse
Conditions: 100 nM, 24 hours of incubation
Experimental: The mouse B16F10 melanoma cells were purchased from Bioresource Collection and Research Center (BCRC, Hsinchu, Taiwan) and cultured using Dulbecco's Modified Eagle Medium (DMEM, Gibco, MA, USA) supplemented with 10% fetal bovine serum and 1% antibiotics (100 units/mL penicillin, […], 0.25 μg/mL amphotericin) in a humidified atmosphere of 5% CO2 at 37° C. The control group was untreated with alpha-melanocyte-stimulating hormone (α-MSH) and aquachoice; The different treatment groups were all treated with α-MSH and different doses aquachoice.
Cells were seeded at a density of […] in 96-well plate for 24 h and then treated with aqua choice at different concentrations for 24 and 48 h. At the end of the treatment, the medium was removed and 100 μL 3-(4,5-Dimethylthiazol-2-yl)-2,5-Diphenyltetrazolium bromide (MTT) solution (Sigma-Aldrich, USA) was treated. MTT reagent was cleanly removed after incubation in a 37° C. incubator for 3 hours, and then 100 μL of DMSO per well was added to dissolve all of the formazan generated in the wells. The result was measured by absorbance at 570 nm with an ELISA reader.

## alpha-melanocyte-stimulating hormone [α-MSH]
  increase in cell viability: ~ 1.55 fold
